Test results reported in patent EP1262190A1, “RFRP-CONTAINING PROLACTIN SECRETION REGULATORY AGENT” (Takeda Chemical Industries, Ltd., priority 2000, dated 2001).
Where no end group is shown, it is not given here.

Assays:
[1] = target: T1, Human 0T7T022 receptor-expressing CHO cells (Homo sapiens, UniProt Q9GZQ6); experiment: Agonist activity of RF amide peptides: inhibition of forskolin-increased cAMP in human 0T7T022 receptor-expressing CHO cells; assay type: cell-based; conditions: 1 µM forskolin, 37°C for 30 minutes, FIG. 14
T1 construct: expressed in transfected cells; host or cells: CHO cells
T1 sequence (Q9GZQ6 whole entry): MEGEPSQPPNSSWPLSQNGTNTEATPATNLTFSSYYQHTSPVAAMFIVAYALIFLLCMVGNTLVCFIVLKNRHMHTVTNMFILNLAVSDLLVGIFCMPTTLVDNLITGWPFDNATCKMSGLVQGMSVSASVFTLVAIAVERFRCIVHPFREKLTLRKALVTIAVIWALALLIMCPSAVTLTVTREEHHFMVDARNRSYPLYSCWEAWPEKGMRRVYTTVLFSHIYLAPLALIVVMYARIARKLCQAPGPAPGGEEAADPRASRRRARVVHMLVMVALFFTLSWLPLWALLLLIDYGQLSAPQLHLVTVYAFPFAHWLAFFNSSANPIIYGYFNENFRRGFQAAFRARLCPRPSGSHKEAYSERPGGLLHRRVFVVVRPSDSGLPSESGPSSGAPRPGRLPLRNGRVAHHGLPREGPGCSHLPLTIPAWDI
Experimental: Human 0T7T022 receptor-expressing CHO cells obtained by a modification of the method described in WO 00/29441 were inoculated on a 24-well plate in a concentration of 3 x 10^5 cells/well. After incubation overnight, the cells were rinsed with Hanks' buffer (HBSS) supplemented with 0.05% BSA and 0.2 mM IBMX, and then preincubated at 37°C for 30 minutes in the same buffer. Next, the buffer was exchanged by Hanks' buffer (HBSS) supplemented with 0.05% BSA and 0.2 mM IBMX, or HBSS further added with 1 µM forskolin only, or HBSS added with 1 µM forskolin and peptide of various concentrations, followed by incubation at 37°C for 30 minutes. After completion of the incubation, cAMP in the cells of each well was extracted and quantified according to the method of cAMP EIA Kit (Amersham Inc.). An inhibition rate of the increased cAMP level in the cells by the forskolin treatment was calculated with the respective concentrations of the peptide.

[2] = target: T2, r0T7T022L receptor-expressing CHO cells (Rattus norvegicus, UniProt Q9EP86); experiment: Reaction of receptor-expressing CHO cells with peptides in the cytosensor (acidification rate); assay type: cell-based; conditions: peptide exposure for 7 minutes and 2 seconds, FIG. 8
T2 construct: expressed in transfected cells; host or cells: CHO cells
T2 sequence (Q9EP86 whole entry): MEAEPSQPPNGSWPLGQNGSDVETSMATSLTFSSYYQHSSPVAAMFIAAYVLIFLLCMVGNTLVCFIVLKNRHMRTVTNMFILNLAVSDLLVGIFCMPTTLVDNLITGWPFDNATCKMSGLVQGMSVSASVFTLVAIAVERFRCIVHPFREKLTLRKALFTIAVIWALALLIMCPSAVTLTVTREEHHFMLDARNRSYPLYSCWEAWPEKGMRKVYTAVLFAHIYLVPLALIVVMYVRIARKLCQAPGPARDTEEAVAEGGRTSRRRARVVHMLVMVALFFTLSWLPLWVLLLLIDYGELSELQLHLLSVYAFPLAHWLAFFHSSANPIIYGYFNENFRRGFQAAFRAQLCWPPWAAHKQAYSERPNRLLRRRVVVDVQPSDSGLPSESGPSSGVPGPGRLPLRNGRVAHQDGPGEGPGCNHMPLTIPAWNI
Description: The r0T7T022L receptor-expressing CHO cells obtained in REFERENCE EXAMPLE 7 (2) above were inoculated on capsules for cytosensor in 2.7 x 10^5 cells/capsule. After culturing overnight, the cytosensor was mounted to a work station for the cytosensor. A medium for assay (low buffered RMPI1640 medium supplemented with 0.1% bovine serum albumin), that was set in the flow path of the cytosensor, was supplied to the cells in a pump cycle of ON (80 seconds) and OFF (40 seconds). A rate of change in […] from 8 to 30 seconds after the pump stopped was calculated as an acidification rate. A change of the acidification rate with passage of time was monitored; when stable reading was obtained, the flow path was switched to expose each peptide to the cells for 7 minutes and 2 seconds. In the acidification rate of each well, the data for 3 cycles immediately before the peptide exposure was made 100% for standardization.

[3] = tested on: pituitary hormone level in plasma; experiment: Effect of administration into the third ventricle on pituitary hormone level in plasma (radioimmunoassay); assay type: in vivo, Wistar rats; conditions: 10 nmols into the third ventricle; for plasma prolactin level: vs PBS control
[4] = target: T1, Human 0T7T022 receptor-expressing CHO cells; experiment: Effect of pertussis toxin on activation of human 0T7T022 receptor by RFRP peptide (cAMP production inhibition); assay type: cell-based; conditions: 0.1 µM peptide, 1 µM forskolin, cells treated with 100 ng/ml pertussis toxin, FIG. 15
Experimental: Human 0T7T022 receptor-expressing CHO cells obtained in EXAMPLE 8 were inoculated on a 24-well plate in a concentration of 1 x 10^5 cells/well. After culturing overnight, the medium was exchanged by a medium added with 100 ng/ml pertussis toxin (Sigma, Inc.) or with a control medium followed by further incubation overnight. The cells were rinsed with Hanks' buffer (HBSS) supplemented with 0.05% BSA and 0.2 mM IBMX and then preincubated at 37°C for 30 minutes in the same buffer. Next, the cells were incubated at 37°C for 30 minutes after the buffer was exchanged by Hanks' buffer alone (HBSS) supplemented with 0.05% BSA and 0.2 mM IBMX (black column), or by HBSS further added with 1 µM forskolin only (white column), or by HBSS added with 1 µM forskolin and 0.1 µM RFRP-1-12 (peptide having the 81 (Met) to 92 (Phe) amino acid sequence in SEQ ID NO:1) (hatched column). After completion of the incubation, cAMP in the cells of each well was extracted and quantified according to the method of cAMP EIA Kit (Amersham, Inc.).

Asn-Pro-Phe-Phe [NPFF, reference compound]
ED50 levels (inhibition rate of the increased cAMP level in the cells by the forskolin treatment) [1]: 0.14 µM

Pro-Gln-Arg-Phe-NH2 (PQRF-NH2) [PQRFamide, reference compound]
ED50 levels (inhibition rate of the increased cAMP level in the cells by the forskolin treatment) [1]: ≥ 1 µM

rRFRP-1-37: peptide having the 58 (Ser) to 94 (Phe) amino acid sequence in SEQ ID NO:50 (SVTFQELKDWGAKKDIKMSPAPANKVPHSAANLPLRF; UniProt Q9ESQ9 58-94, looked up, fragment)
ED50 levels (inhibition rate of the increased cAMP level in the cells by the forskolin treatment) [1]: 0.03 µM

CC(C)C[C@H](NC(=O)[C@H](CC(N)=O)NC(=O)[C@@H]1CCCN1C(=O)[C@@H](N)C(C)C)C(=O)N1CCC[C@H]1C(=O)N[C@@H](CCC(N)=O)C(=O)N[C@@H](CCCNC(=N)N)C(=O)N[C@@H](Cc1ccccc1)C(N)=O
reaction of r0T7T022L-expressing CHO cells (acidification rate) [2]: strongly showed dose-dependent reaction

MPHSFANLPLRF-NH2
level of ACTH in plasma [3]: none showed any significant change
level of GH in plasma [3]: none showed any significant change
level of LH in plasma [3]: none showed any significant change
level of TSH in plasma [3]: none showed any significant change
plasma prolactin level ([3]; 10 minutes after administration): tended to increase
plasma prolactin level ([3]; 20 minutes after administration): significantly increased
plasma prolactin level ([3]; 30 minutes after administration): significantly increased
plasma prolactin level ([3]; 40 minutes after administration): significantly increased
plasma prolactin level ([3]; 60 minutes after administration): a significant difference was noted
reaction of r0T7T022L-expressing CHO cells (acidification rate) [2]: strongly showed dose-dependent reaction
cAMP production inhibiting activity [4]: lost

hRFRP-1-37: peptide having the 56 (Ser) to 92 (Phe) amino acid sequence in SEQ ID NO:1 (SLNFEELKDWGPKNVIKMSTPAVNKMPHSFANLPLRF; UniProt Q9HCQ7 56-92, looked up, fragment)
ED50 levels (inhibition rate of the increased cAMP level in the cells by the forskolin treatment) [1]: 0.021 µM
